Measured values published in paper PMC8989888, “Development of optimized drug-like small molecule inhibitors of the SARS-CoV-2 3CL protease for treatment of COVID-19” (Nature Communications, 2022).
“And” between values parts separate entries of the source, which are not always exact repeats. Equal entries are not always repeated. Where two headings read alike, the source gives them in different places.

Tests used:
[1] = molecular target: T1, SARS-CoV-2 3CL protease (Severe acute respiratory syndrome coronavirus 2, UniProt P0DTD1); experiment: biochemical; conditions: for % SARS-CoV-2 3CL activity / Normalized SARS-CoV-2 3CL protease activity: replicates; for Normalized SARS-CoV-2 3CL protease activity: 0.2 µM protease with 50 µM tested compound
[2] = molecular target: T1, SARS-CoV-2 3CL protease; experiment: cell-based
[3] = molecular target: T1, SARS-CoV-2 3CL protease; experiment: biochemical; conditions: for kinact/KI: read-out: SARS-CoV-2 3CLpro kinact/KI
[4] = molecular target: T1, SARS-CoV-2 3CL protease; type: binding
[5] = system: SARS-CoV-2; experiment: microbe, parasite or virus in culture; type: cell-based; conditions: for EC50: Severe acute respiratory syndrome coronavirus 2, Vero C1008, read-out: SARS-CoV-2 Vero E6 EC50
[6] = molecular target: T1, SARS-CoV-2 3CL protease; type: binding; remark: listed apart in the source
[7] = system: human chymotrypsin; experiment: Chymotrypsin activity assay (Panc-1 cell lysate); type: biochemical
[8] = system: SARS-CoV-2; experiment: microbe, parasite or virus in culture; type: cell-based
[9] = 20 nM protease, log10[nM] 0.19382
[10] = 20 nM protease, log10[nM] 0.49485
[11] = 20 nM protease, log10[nM] 0.79588
[12] = 20 nM protease, log10[nM] 1.09691
[13] = 20 nM protease, log10[nM] 1.39794
[14] = 20 nM protease, log10[nM] 1.69897
[15] = 20 nM protease, log10[nM] 2.30103
[16] = 20 nM protease, log10[nM] 2.60206
[17] = 20 nM protease, log10[nM] 2.90309
[18] = 20 nM protease, log10[nM] -0.10721
[19] = 20 nM protease, log10[nM] -0.40824
[20] = 20 nM protease, read-out: SARS-CoV-2 3CLpro IC50
[21] = Concentration of inhibitor (nM) 0.19382
[22] = Concentration of inhibitor (nM) 0.49485
[23] = Concentration of inhibitor (nM) 0.79588
[24] = Concentration of inhibitor (nM) 1.09691
[25] = Concentration of inhibitor (nM) 1.39794
[26] = Concentration of inhibitor (nM) 1.69897
[27] = Concentration of inhibitor (nM) 2
[28] = Concentration of inhibitor (nM) 2.30103
[29] = Concentration of inhibitor (nM) -0.10721
[30] = Concentration of inhibitor (nM) -0.40824

Cc1ncc(C(=O)Oc2cncc(Br)c2)s1 [Z43]
% SARS-CoV-2 3CL activity [1, 9]: 81.5961% and 71.2676% | % SARS-CoV-2 3CL activity [1, 10]: 59.9348% and 65.0704% | % SARS-CoV-2 3CL activity [1, 11]: 59.9348% and 45.6338% | % SARS-CoV-2 3CL activity [1, 12]: 45.6026% and 45.2113% | % SARS-CoV-2 3CL activity [1, 13]: 33.0619% and 25.9155% | % SARS-CoV-2 3CL activity [1, 14]: 9.772% and 20% | % SARS-CoV-2 3CL activity ([1]; 20 nM protease, log10[nM] 2): -2.443% and 0.9859% | % SARS-CoV-2 3CL activity [1, 15]: -12.7036% and 7.042% | % SARS-CoV-2 3CL activity [1, 16]: -11.2378% and 5.775% | % SARS-CoV-2 3CL activity [1, 17]: 0% | % SARS-CoV-2 3CL activity [1, 18]: 77.6873% and 77.6056% | % SARS-CoV-2 3CL activity [1, 19]: 100% | IC50 [1, 20]: 14 nM | Normalized SARS-CoV-2 3CL protease activity [1]: 0.007869 and 0.001311 and 0.005246 | Absorbance (crystal violet), SARS-CoV-2 3CLpro [2]: 0.1361 and 0.1268

O=C(N[C@@H](CC1CCCCC1)C(=O)N[C@@H](C[C@@H]1CCNC1=O)C(O)S(=O)(=O)O)OCc1cccc(Cl)c1 (stereo partly drawn) [EB48]
IC50 [1, 20]: 200 nM | normalized activity, dose-response curve (Figure S16) [1, 21]: 110.351 and 97.4198 | normalized activity, dose-response curve (Figure S16) [1, 22]: 103.827 and 92.511 | normalized activity, dose-response curve (Figure S16) [1, 23]: 102.384 and 88.7351 | normalized activity, dose-response curve (Figure S16) [1, 24]: 98.7453 and 87.9169 | normalized activity, dose-response curve (Figure S16) [1, 25]: 87.2647 and 81.1831 | normalized activity, dose-response curve (Figure S16) [1, 26]: 80.9285 and 77.1554 | normalized activity, dose-response curve (Figure S16) [1, 27]: 69.8871 and 61.2964 | normalized activity, dose-response curve (Figure S16) [1, 28]: 58.4065 and 46.4443 | normalized activity, dose-response curve (Figure S16) ([1]; Concentration of inhibitor (nM) 2.60206): 43.601 and 36.7527 | normalized activity, dose-response curve (Figure S16) [1, 29]: 108.281 and 111.58 | normalized activity, dose-response curve (Figure S16) [1, 30]: 100 | observed inactivation rate vs compound concentration (Figure S19, replicate values) [3]: 0.0858 and 0.04 and 0.095 and 0.0226 and 0.0022 and 0.0296 and 0.1194 and 0.0166 and 0.0446 and 0.0488 and 0.0144 and 0.0572 and 0.0269 and -0.02233 and 0.0225 and 0.0208 and 0.0151 and 0.0309 | kinact/KI [3]: 35000 M⁻¹ s⁻¹ | binding to 3CL protease by mass spectrometry (in words) [4]: blocked the covalent binding of 10 equivalents of compound 4 | EC50 [5]: 16000 nM

O=C(Oc1cncc(Cl)c1)c1cccs1 [MAC-5576, reference compound]
IC50 ([1]; IC50): 93 nM | IC50 ([1]; SARS-CoV-2 3CLpro IC50): 10 nM | binding stoichiometry [6]: 1.2 ± 0.2 | binding to 3CL protease by mass spectrometry (in words) [4]: one-to-one complex | Normalized chymotrypsin activity [7]: 1.078 and 0.9826 and 0.9946 | % SARS-CoV-2 inhibition [5]: -2% | EC50, inhibition of SARS-CoV-2 viral replication [5]: did not

O=C(/C=C/c1ccc(F)cc1)Oc1cc(Cl)c[nH]c1=O [Z14]
Normalized SARS-CoV-2 3CL protease activity [1]: 1.002 and 0.9823 and 0.9751 | Absorbance (crystal violet), SARS-CoV-2 3CLpro [2]: 0.1689 and 0.1739

CC(=O)Nc1ccc(C(=O)Oc2cncc(Cl)c2)cc1 [Z32]
Normalized SARS-CoV-2 3CL protease activity [1]: 0.07213 and 0.1423 and 0.1862 | Absorbance (crystal violet), SARS-CoV-2 3CLpro [2]: 0.1483 and 0.1499

O=C(Oc1cncc(Cl)c1)c1ccco1 [T71]
% SARS-CoV-2 3CL activity [1, 9]: 86.3659% and 89.8434% | % SARS-CoV-2 3CL activity [1, 10]: 80.2845% and 76.3012% | % SARS-CoV-2 3CL activity [1, 11]: 65.6694% and 65.2855% | % SARS-CoV-2 3CL activity [1, 12]: 47.7195% and 48.4083% | % SARS-CoV-2 3CL activity [1, 13]: 16.1844% and 18.9995% | % SARS-CoV-2 3CL activity [1, 14]: 0.4414% and 4.144% | % SARS-CoV-2 3CL activity ([1]; 20 nM protease, log10[nM] 2): -3.629% and 1.061% | % SARS-CoV-2 3CL activity [1, 15]: -2.6974% and 0.4042% | % SARS-CoV-2 3CL activity [1, 16]: -1.9127% and -0.758% | % SARS-CoV-2 3CL activity [1, 17]: 0% | % SARS-CoV-2 3CL activity [1, 18]: 95.0956% and 96.5639% | % SARS-CoV-2 3CL activity [1, 19]: 100% | IC50 [1, 20]: 11 nM | Normalized SARS-CoV-2 3CL protease activity [1]: 0.04328 and 0.01902 and 0.03148 | Absorbance (crystal violet), SARS-CoV-2 3CLpro [2]: 0.16 and 0.1636

CC(C)C[C@H](NC(=O)OCc1cccc2ccccc12)C(=O)N[C@@H](C[C@@H]1CCNC1=O)C(O)S(=O)(=O)O (stereo partly drawn) [EB55]
IC50 [1, 20]: 72 nM | normalized activity, dose-response curve (Figure S16) [1, 21]: 97.6947 and 91.9164 | normalized activity, dose-response curve (Figure S16) [1, 22]: 90.7787 and 89.6887 | normalized activity, dose-response curve (Figure S16) [1, 23]: 89.0003 and 83.5464 | normalized activity, dose-response curve (Figure S16) [1, 24]: 84.4555 and 78.5499 | normalized activity, dose-response curve (Figure S16) [1, 25]: 77.2102 and 70.0207 | normalized activity, dose-response curve (Figure S16) [1, 26]: 64.1027 and 59.773 | normalized activity, dose-response curve (Figure S16) [1, 27]: 47.4055 and 42.8102 | normalized activity, dose-response curve (Figure S16) [1, 28]: 16.7117 and 14.6768 | normalized activity, dose-response curve (Figure S16) [1, 29]: 100.329 and 102.132 | normalized activity, dose-response curve (Figure S16) [1, 30]: 100 | observed inactivation rate vs compound concentration (Figure S19, replicate values) [3]: 0.0457 and 0.0269 and 0.0571 and -0.0002 and 0.0258 and 0.0554 and 0.0425 and 0.0417 and 0.0134 and 0.0205 and 0.022 and 0.0066 | kinact/KI [3]: 21700 M⁻¹ s⁻¹ | EC50 [5]: 3000 nM | inhibition of SARS-CoV-2 (Figure s17b dose-response, replicate values) [8]: 100.856 and 96.5428 and 101.322 and 91.4468 and 90.1295 and 92.8292 and 65.5151 and 69.1898 and 72.8142 and 38.0936 and 42.5735 and 35.1981 and 28.1354 and 24.4902 and 21.8952 and 10.9114 and 19.9799 and 11.8441 and 9.792 and 14.2234 and 10.7567 | EC50 ([8]; Severe acute respiratory syndrome coronavirus 2, 24 h, read-out: SARS-CoV-2 Huh-7ACE2 EC50): 11 nM

CCn1nc(C)c(C(=O)Oc2cncc(Cl)c2)c1Cl [Z65]
Normalized SARS-CoV-2 3CL protease activity [1]: 0.223 and 0.2216 and 0.2302 | Absorbance (crystal violet), SARS-CoV-2 3CLpro [2]: 0.1475 and 0.1384
